Laboratory results from patent publication US20100216661A1, “Diagnostic Assay” (priority 2007, published 2010).

What was measured:
[1] = test system: anti-RhD monoclonal antibody T22 (LHM 169/80); assay: Biopanning of phage-peptide libraries with anti-RhD T22; format: binding, Human
Source text: (§1) Three different phage libraries from New England Biolabs. (Ph.D. 7 and Ph.D. 12 displaying linear 7- and 12-mer peptides, respectively and Ph.D. C7C displaying 7-mer peptides constrained by a disulphide bridge at their termini) and a linear 15mer library (kindly provided by Prof. George P. Smith, University of Missouri) were used in biopanning experiments with 10 different monoclonal antibodies and a polyclonal preparation (Table 1).
(§2) For each target antibody/library combination, a separate well of a 96-well Immulon 4 flat-bottomed ELISA plate (Thermo Labsystems) was coated with 5 μg of antibody in 150 μl ELISA coating buffer (15 mM Na2CO3, 35 mM NaHCO3, pH9.6). Plates were sealed and incubated at 4° C. overnight. Unbound antibody was discarded and 350 μl of blocking buffer (0.1M NaHCO3/3% skimmed milk powder) was added to each well. Plates were sealed and incubated for 1 hour at 4° C. The blocking buffer was removed and the wells were washed six times with 300 μl TBS/0.1% Tween 20. Approximately 2×10^11 plaque forming units (pfu) in 100 μl TBS/0.1% Tween 20 were added to each well and the plates were incubated at room temperature for 1 hour. Wells were washed ten times with 300 μl TBS/0.1% Tween 20. Bound phage were eluted by incubation with 100 μl of 0.2M glycine-HCl/BSA, pH2.2 (1 mg/ml) for 10 minutes, then neutralised with 15 μl of 1M Tris-HCL (pH9.1). An aliquot of the Round 1 eluate was removed and titred. The remainder of the eluted phage were amplified by infection of E. coli ER2538 cells for 4.5 hours at 37° C. The cultures were centrifuged for 10 minutes at 10,000 rpm at 4° C. The supernatants were recovered, ⅙ volume PEG/NaCl (20% polyethylene glycol 8000; 2.5M NaCl) added, then incubated overnight at 4° C. The PEG-precipitated phage were centrifuged at 10,000 rpm for 15 minutes at 4° C. The supernatant was removed and the phage pellet resuspended in 200 μl TBS. Two further rounds of panning were undertaken and approximately 2×10^11 pfu of the Round 2 or Round 3 amplified eluates were used as input phage. Round 3 eluates were titrated but not amplified. Individual plaques were amplified and subjected to PCR amplification, prior to DNA sequence analysis. The specificity of peptide-antibody binding was subsequently determined using both phage ELISA and SPOTs techniques.

[2] = test system: anti-RhD monoclonal antibody T10 (LHM76/55); assay: Biopanning of phage-peptide libraries with anti-RhD T10; format: binding, Human; conditions: for Panning Antibody (antibody that selected the phage-peptide in biopanning): biopanning of phage-peptide libraries with anti-RhD monoclonal T10
Source text: as §1, §2

[3] = test system: polyclonal anti-RhD preparation (Human Anti-D Ig); assay: Biopanning of phage-peptide libraries with polyclonal anti-RhD; format: binding; conditions: phage-peptide libraries; three rounds of panning
Source text: as §1, §2

[4] = test system: anti-RhD monoclonal antibody T27 (LHM169/81); assay: Biopanning of phage-peptide libraries with anti-RhD T27; format: binding, Human
Source text: as §1, §2

Substance: Rh0 37 (WHWSSLSWPALP)
- Panning Antibody (antibody that selected the phage-peptide in biopanning) [1]: RhD T22

Substance: Rh0 43 (YYQRAPY)
- Panning Antibody (antibody that selected the phage-peptide in biopanning) [2]: RhD T10

Substance: RhD52: RhD peptide mimotope, Table 4 (HSSWYIQHFPPL)
- Selection by biopanning with anti-RhD monoclonal antibody T10 ([2]; phage-peptide libraries, three rounds of panning): selected
- Selection by biopanning with polyclonal anti-RhD preparation [3]: selected

Substance: RhD 1 (GLFKIQP)
- Panning Antibody (antibody that selected the phage-peptide in biopanning) [4]: RhD T27

Substance: RhD 2 (LGHHNPH)
- Panning Antibody (antibody that selected the phage-peptide in biopanning) [4]: RhD T27

Substance: RhD 16 (WGLWFSN)
- Panning Antibody (antibody that selected the phage-peptide in biopanning) [1]: RhD T22

Substance: RhD 17 (WGIWWNN)
- Panning Antibody (antibody that selected the phage-peptide in biopanning) [1]: RhD T22

Substance: RhD 18 (WGLWSTP)
- Panning Antibody (antibody that selected the phage-peptide in biopanning) [1]: RhD T22

Substance: RhD 19 (WVHLQSP)
- Panning Antibody (antibody that selected the phage-peptide in biopanning) [1]: RhD T22

Substance: RhD 20 (WGLWWHT)
- Panning Antibody (antibody that selected the phage-peptide in biopanning) [1]: RhD T22

Substance: RhD 21 (WGLWWTG)
- Panning Antibody (antibody that selected the phage-peptide in biopanning) [1]: RhD T22

Substance: RhD 22 (LLGLTET)
- Panning Antibody (antibody that selected the phage-peptide in biopanning) [1]: RhD T22

Substance: RhD 23 (DSRWLLP)
- Panning Antibody (antibody that selected the phage-peptide in biopanning) [1]: RhD T22

Substance: RhD 24 (FHWWPRTQDPHR)
- Panning Antibody (antibody that selected the phage-peptide in biopanning) [1]: RhD T22

Substance: RhD 25 (FHWSWYTPSRPS)
- Panning Antibody (antibody that selected the phage-peptide in biopanning) [1]: RhD T22

Substance: RhD 26 (HSSWWLALAKPT)
- Panning Antibody (antibody that selected the phage-peptide in biopanning) [1]: RhD T22

Substance: RhD 27 (WHWYPRFSPPSH)
- Panning Antibody (antibody that selected the phage-peptide in biopanning) [1]: RhD T22

Substance: RhD 28 (NDYSDSNQVPAS)
- Panning Antibody (antibody that selected the phage-peptide in biopanning) [1]: RhD T22

Substance: RhD 29 (FHWPRSWVTWQS)
- Panning Antibody (antibody that selected the phage-peptide in biopanning) [1]: RhD T22

Substance: RhD 30 (HLSSRHLFVPLS)
- Panning Antibody (antibody that selected the phage-peptide in biopanning) [1]: RhD T22

Substance: RhD 31 (TITDCYPICVSP)
- Panning Antibody (antibody that selected the phage-peptide in biopanning) [1]: RhD T22

Substance: RhD 32 (WPCHPICLSPRG)
- Panning Antibody (antibody that selected the phage-peptide in biopanning) [1]: RhD T22

Substance: RhD 33 (AMDCFPICLWNP)
- Panning Antibody (antibody that selected the phage-peptide in biopanning) [1]: RhD T22

Substance: RhD 34 (WNCFPICHASGL)
- Panning Antibody (antibody that selected the phage-peptide in biopanning) [1]: RhD T22

Substance: RhD 35 (VYALGCWPICHK)
- Panning Antibody (antibody that selected the phage-peptide in biopanning) [1]: RhD T22

Substance: RhD 36 (HHVFTPNCYPIC)
- Panning Antibody (antibody that selected the phage-peptide in biopanning) [1]: RhD T22

Substance: RhD 38 (GNWLFNSCYPLCFPL)
- Panning Antibody (antibody that selected the phage-peptide in biopanning) [1]: RhD T22

Substance: RhD 39 (AFLGHSHWFPSVASR)
- Panning Antibody (antibody that selected the phage-peptide in biopanning) [1]: RhD T22

Substance: RhD 40 (QLLCFPICRPEPPVS)
- Panning Antibody (antibody that selected the phage-peptide in biopanning) [1]: RhD T22

Substance: RhD 41 (WYTKAPY)
- Panning Antibody (antibody that selected the phage-peptide in biopanning) [2]: RhD T10

Substance: RhD 42 (WYHKAPY)
- Panning Antibody (antibody that selected the phage-peptide in biopanning) [2]: RhD T10

Substance: RhD 44 (HWKHPWGAWDTL)
- Panning Antibody (antibody that selected the phage-peptide in biopanning) [2]: RhD T10

Substance: RhD 45 (WHWQWTPWSIQP)
- Panning Antibody (antibody that selected the phage-peptide in biopanning) [2]: RhD T10

Substance: RhD 46 (WHKNWWPPSTPN)
- Panning Antibody (antibody that selected the phage-peptide in biopanning) [2]: RhD T10

Substance: RhD 47 (SMSSMLLAAQTV)
- Panning Antibody (antibody that selected the phage-peptide in biopanning) [2]: RhD T10

Substance: RhD 48 (QSHYRHISPAQV)
- Panning Antibody (antibody that selected the phage-peptide in biopanning) [2]: RhD T10

Substance: RhD 49 (SMSQPKSQVNAH)
- Panning Antibody (antibody that selected the phage-peptide in biopanning) [2]: RhD T10

Substance: RhD 50 (WHWTFYTPLEST)
- Panning Antibody (antibody that selected the phage-peptide in biopanning) [2]: RhD T10

Substance: RhD 51 (ESLSTDTYAILL)
- Panning Antibody (antibody that selected the phage-peptide in biopanning) [2]: RhD T10

Substance: RhD 52 (HSSWYIQHFPPL)
- Panning Antibody (antibody that selected the phage-peptide in biopanning) [2]: RhD T10

Substance: RhD 53 (STYLNGPTGVDL)
- Panning Antibody (antibody that selected the phage-peptide in biopanning) [2]: RhD T10

Substance: RhD 54 (QHKTSITGHLEP)
- Panning Antibody (antibody that selected the phage-peptide in biopanning) [2]: RhD T10

Substance: RhD 55 (FHRWPTWPLPSP)
- Panning Antibody (antibody that selected the phage-peptide in biopanning) [2]: RhD T10

Substance: RhD 56 (VPPWVSVRTGPG)
- Panning Antibody (antibody that selected the phage-peptide in biopanning) [2]: RhD T10

Substance: RhD 57 (TLVYQPPWYRIA)
- Panning Antibody (antibody that selected the phage-peptide in biopanning) [2]: RhD T10

Substance: RhD 58 (FHQRLWWPTHTP)
- Panning Antibody (antibody that selected the phage-peptide in biopanning) [2]: RhD T10
